Experimental data from the Kinase Knowledgebase extract (Sharma et al. 2016).

These compounds were tested against PIK3CA (human) (UniProt P42336) (assay: Assessment of PIK3CA Kinase Activity).
Sequence of PIK3CA (human) (P42336 whole entry, looked up): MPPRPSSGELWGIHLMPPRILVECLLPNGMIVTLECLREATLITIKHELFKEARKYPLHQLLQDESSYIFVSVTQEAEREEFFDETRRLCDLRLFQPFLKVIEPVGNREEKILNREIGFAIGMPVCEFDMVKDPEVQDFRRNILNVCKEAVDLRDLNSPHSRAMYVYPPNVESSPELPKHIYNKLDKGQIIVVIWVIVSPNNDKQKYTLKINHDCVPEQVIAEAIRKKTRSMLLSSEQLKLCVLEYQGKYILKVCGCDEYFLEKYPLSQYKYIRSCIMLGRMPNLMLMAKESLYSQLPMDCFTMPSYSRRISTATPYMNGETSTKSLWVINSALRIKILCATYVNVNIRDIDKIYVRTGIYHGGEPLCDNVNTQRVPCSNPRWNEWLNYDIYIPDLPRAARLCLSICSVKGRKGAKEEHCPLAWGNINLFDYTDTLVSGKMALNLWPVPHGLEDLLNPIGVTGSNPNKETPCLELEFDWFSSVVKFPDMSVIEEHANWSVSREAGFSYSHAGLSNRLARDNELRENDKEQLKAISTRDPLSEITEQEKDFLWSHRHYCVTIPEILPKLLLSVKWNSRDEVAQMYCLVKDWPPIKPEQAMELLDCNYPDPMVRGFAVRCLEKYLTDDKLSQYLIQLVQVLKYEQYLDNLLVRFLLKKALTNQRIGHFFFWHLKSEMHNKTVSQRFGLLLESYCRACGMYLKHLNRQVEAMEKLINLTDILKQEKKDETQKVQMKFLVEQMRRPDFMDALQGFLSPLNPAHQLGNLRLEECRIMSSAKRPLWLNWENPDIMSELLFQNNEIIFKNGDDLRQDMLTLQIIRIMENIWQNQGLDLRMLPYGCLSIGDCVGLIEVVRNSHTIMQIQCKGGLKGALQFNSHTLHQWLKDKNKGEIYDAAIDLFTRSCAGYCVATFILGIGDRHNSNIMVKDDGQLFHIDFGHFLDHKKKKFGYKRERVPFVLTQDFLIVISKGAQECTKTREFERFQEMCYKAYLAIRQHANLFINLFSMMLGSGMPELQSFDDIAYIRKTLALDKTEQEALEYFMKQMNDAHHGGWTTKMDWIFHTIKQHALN

First: O=C(Nc1ccc(-c2cc(-n3c(C(F)F)nc4ccccc43)nc(N3CCOCC3)n2)cc1)[C@@H]1CCCCN1
Second: NCC(=O)N1CC=C(c2cc(N3CCOCC3)nc(-n3c(C(F)F)nc4ccccc43)n2)CC1
The IC50 of the first is 23-fold higher: 2300 nM for the first, 100 nM for the second. The second is the more potent here.

Going from `CCNC(=O)Nc1ccc(-c2nc(N3CCO[C@@H](C)C3)c3cnn(C4CCN(C(=O)OCC)CC4)c3n2)cc1` to `CCc1ncnc(N2CCC(O)(CC)CC2)c1C#Cc1ccc(N)nc1`, the IC50 falls from 553 nM to 50 nM (11-fold).

Going from `NCC(=O)N1CCN(c2nc(N3CCOCC3)cc(-n3c(C(F)F)nc4ccccc43)n2)CC1` to `NC(=O)[C@@H]1CCCN1CC(=O)N1CCN(c2nc(N3CCOCC3)cc(-n3c(C(F)F)nc4ccccc43)n2)CC1`, the IC50 rises from 100 nM to 200 nM (2-fold). The first is the more potent here.

`Cn1c(=NC#N)n(-c2ccc(C(C)(C)C#N)nc2)c2c3cc(-c4ccnc(N5CCOCC5)c4Cl)ccc3ncc21` and `NC(=O)c1ccc(NC(=O)Nc2ccc(-c3cc(N4CC5CCC(C4)O5)nc(-c4ccc(NC(=O)Nc5ccc(C(N)=O)cc5)cc4)n3)cc2)cc1` cannot be ordered by IC50: 10 to 1000 nM for the first, 44.5 nM for the second.

Compared with `CC(C)(C)COC(=O)NCc1ccc(NC(=O)Nc2ccc(-c3nc(CS(C)(=O)=O)cc(N4CC5CCC(C4)O5)n3)cc2)cc1`, `Cc1nc(NCC(=O)N(C)C)cc(-c2c(Nc3ccn(C)n3)nc3cccnn23)n1` is 10-fold higher in IC50: 1930 nM for the first, 20100 nM for the second. The first is the more potent here.

Compared with `COc1cccc(Nc2nc(-c3cccc4onc(N)c34)nc3c2cnn3C)c1OC`, `O=C(Nc1cccc(-c2cc(N3CCOCC3)nc(-c3cccc(CO)c3)n2)c1)N1CCNCC1` is 180-fold higher in IC50: 1.7 nM for the first, 300 nM for the second.

Compared with `Cc1nc(N)nc(-c2c(Nc3ccn[nH]3)nc3ccc(CCC(O)CO)cn23)n1` (stereo unspecified), `Nc1ncc(-c2nc(N3CCOCC3)nc3c2CCN3c2ccc(CN3CCN(CCCCF)CC3)cc2)cn1` is 8.5-fold lower in IC50: 170 nM for the first, 20 nM for the second.

Going from `CCc1ncnc(N2CCC3(CCN(C)CC3)CC2)c1C#Cc1ccc(N)nc1` to `CCC1(O)CCN(c2ncnc(C)c2C#Cc2ccc(N)nc2)CC1`, the IC50 falls from 136 nM to 15 nM (9.1-fold).

Going from `Cc1ncnc(N2CCC(C)(O)CC2)c1C#Cc1ccc(N)nc1` to `CCOC(=O)N1CCC(n2ncc3c(N4CCO[C@@H](C)C4)nc(-c4ccc(NC(=O)NCCF)cc4)nc32)CC1`, the IC50 rises from 38 nM to 521 nM (14-fold).

First: Cc1ncnc(N2CCC(=O)CC2)c1C#Cc1ccc(N)nc1
Second: CCNC(=O)Nc1ccc(-c2nc(N3CCO[C@H](C)C3)c3cnn(C4CCN(C(=O)OCC)CC4)c3n2)cc1
The IC50 of the first is 42-fold lower: 104 nM for the first, 4360 nM for the second. The first is the more potent here.

First: NC(=O)[C@@H]1CCCCN1C1CCN(c2nc(N3CCOCC3)cc(-n3c(C(F)F)nc4ccccc43)n2)CC1
Second: NCCC1CCN(c2nc(N3CCOCC3)cc(-n3c(C(F)F)nc4ccccc43)n2)CC1
The IC50 of the first is 3-fold higher: 600 nM for the first, 200 nM for the second.

Going from `O=C(Nc1ccc(F)cc1)Nc1ccc(-c2nc(N3CCOCC3)nc(N3C4CCC3COC4)n2)cc1` to `COc1cccc(Nc2nc(-c3cccc4[nH]nc(N)c34)nc3c2cnn3C)c1OC`, the IC50 falls from 39 nM to 11 nM (3.5-fold). The second is the more potent here.

Going from `CCOC(=O)N1CCC(n2ncc3c(N4CCO[C@@H](C)C4)nc(-c4ccc(NC(=O)Nc5ccncc5)cc4)nc32)CC1` to `NCc1ccc(NC(=O)c2cccc(-c3cc(N4CCOCC4)nc(-c4cccc(CO)c4)n3)c2)cc1`, the IC50 rises from 18 nM to 100 nM (5.6-fold).

Going from `COc1cccc2c1nc(C(F)F)n2-c1nc(N2CCOCC2)cc(N2CCN(C(=O)CN)CC2)n1` to `CCOC(=O)N1CCC(n2ncc3c(N4CCO[C@H](C)C4)nc(-c4ccc(NC(=O)NCCF)cc4)nc32)CC1`, the IC50 rises from 20 nM to 4550 nM (230-fold).

`NCC(=O)N1CCN(c2cc(N3CCOCC3)nc(-n3c(C(F)F)nc4ccccc43)n2)CC1` and `CCOC1CCN(c2ncnc(CC)c2C#Cc2ccc(N)nc2)CC1` are within 1.5-fold of each other in IC50: 100 nM for the first, 77 nM for the second.

First: CS(=O)(=O)Cc1cc(N2CCOCC2)nc(-c2ccc(NC(=O)c3ccno3)cc2)n1
Second: Cc1nc(N)cc(n1)C2=C(Nc3cc[nH]n3)NC4=N2N=CC=C4
The IC50 of the first is higher: > 100000 nM for the first, 830 nM for the second. The second is the more potent here.

With `O=C(Nc1cccc(-c2cc(N3CCOCC3)nc(-c3cccc(O)c3)n2)c1)C1CCCNC1` (stereo unspecified) the IC50 was 100 nM.

In order of falling Ki:
1. NC(=O)[C@@H]1CCCN1C(=O)Nc1nc2ccc(-c3cnc(N)c(C(F)(F)F)c3)cc2s1  40 nM
2. COCCOc1cnc(Nc2cnc(Cl)c(NS(C)(=O)=O)c2)c(-c2nc(C)nc(N)n2)c1  25 nM
3. Cc1nc(N)nc(-c2cc(Cl)cnc2Nc2cnc(Cl)c(NS(=O)(=O)N(C)C)c2)n1  12 nM
